System: S. epidermidis G4 biofilm persister
Test: Effect on biofilm persisters, colony counting
Assay type: cell-based, Staphylococcus epidermidis
Settings: vancomycin 100× MIC, 24 h, induction of persisters
Method: The antibacterial effect of NZ2114 nanoparticles on the persistent bacteria in the biofilm was determined according to the previous study.

In the case of CN[C@H](CC(C)C)C(=O)N[C@H]1C(=O)N[C@@H](CC(N)=O)C(=O)N[C@H]2C(=O)N[C@H]3C(=O)N[C@H](C(=O)N[C@H](C(=O)O)c4cc(O)cc(O)c4-c4cc3ccc4O)[C@H](O)c3ccc(c(Cl)c3)Oc3cc2cc(c3O[C@@H]2O[C@H](CO)[C@@H](O)[C@H](O)[C@H]2O[C@H]2C[C@](C)(N)[C@H](O)[C@H](C)O2)Oc2ccc(cc2Cl)[C@H]1O [vancomycin], the “Number of viable bacteria in the biofilm after vancomycin” value is reported as 5.3 × 10^6 CFU/mL.

Reference: publication PMC10967427, “Polylactic Glycolic Acid-Mediated Delivery of Plectasin Derivative NZ2114 in Staphylococcus epidermidis Biofilms” (Antibiotics, 2024)
